In PMC6100073, “Activation of Anthracene Endoperoxides in Leishmania and Impairment of Mitochondrial Functions” (Molecules : A Journal of Synthetic Chemistry and Natural …, 2018):
Read-outs that look alike come from different tables or passages of the source.

Assays:
J774 macrophages = assay: Resazurin viability assay in J774 macrophages; type: cell-based; settings: Mus musculus, read-out: IC50 (µM) Mean ± SD J774
Procedure: The murine macrophage cell line J774A.1 (mouse, ATCC, TIB-67™) was cultivated in Dulbecco’s Modified Eagle Medium (DMEM) (high glucose, 1.5 g/L NaHCO3) supplemented with 25,000 IU/L penicillin, 25 mg/L streptomycin, and 10% FCS (heat-inactivated) in 50 mL TubeSpin bioreactors. The tubes were kept in an incubator at 37 °C and 5% CO2 on a roller culture apparatus (5 rpm). The cells were passaged twice a week, diluting them in a ratio of 1:10. The macrophages were used until passage 30. To determine the cell count, the cell suspension was resuspended and diluted 1:2 with PBS. After fixation of the cells by mixing the cell suspension 1:1 with a formaldehyde solution (2%, v/v), aliquots of the resulting suspension were transferred into a standard Neubauer chamber (VWR, Austria) and counted manually using a light microscope (Motic BA310, Austria) at a magnification of 400×.
LtP (2 × 10^6 cells/mL) in a mixture of YEM and PBS (1:1, v/v) containing 25,000 U/L penicillin, 25 mg/L streptomycin, and 6 µM hemin (YEM/PBS) were prepared. Aliquots of 200 µL of this suspension were distributed in 96-well plates. Control rows containing YEM/PBS (no activity) and with untreated LtP (100% activity) were also loaded on the plate. To the wells of third rows, compounds (leading to a final vehicle concentration of max. 2% dimethyl sulfoxide (DMSO) in the wells) were added. Subsequently, five 1:5 serial dilution steps were performed. The plates were incubated at 26 °C for 48 h. Following the incubation, 50 µL of a resazurin solution in PBS were added to each well, giving a final concentration of 20 µM. After 4 h of incubation, the fluorescence was measured at 560 nm excitation and 590 nm emission using a plate reader (Perkin Elmer Enspire, Germany). The resazurin assays with J774 cells were performed in analogy to the LtP resazurin assays. Aliquots of a J774 cell suspension in DMEM supplemented with 25,000 U/L penicillin, 25 mg/L streptomycin, and 10% FCS (heat-inactivated), giving a final cell concentration of 10^5 cells/mL, were distributed in the wells of the 96-well microplates. The cells were incubated for 24 h (37 °C, 5% CO2) to allow attachment. Then the medium was discarded and non-adherent cells were removed with 200 µL PBS per well. After the addition of DMEM, the compounds were added, and a serial dilution was performed. Control rows with DMEM (no activity) and with untreated J774 cells (100% activity) were also included. […] Then the addition of resazurin and the measurement of fluorescence were carried out in analogy to the viability assays performed in LtP.
Calculations were carried out using Microsoft Excel (Microsoft). The graphs were created using Origin 6.1 (OriginLab Corporation, Northampton, MA, USA). The half maximal inhibitory concentrations (IC50) were determined from non-linear concentration–response curves using a four-parameter logistic model and expressed as the mean ± standard deviation (SD). Statistically significant differences of p <0.05 were identified using Students t-test.

LtP = assay: EPR spin trapping (DMPO): activation of AcEPs by LtP; type: cell-based, Leishmania tarentolae; settings: 500 µM compound, 2 × 10^9 LtP/mL, 40 mM DMPO, 15 min, no added iron
Procedure: To detect the radicals derived from AcEPs in LtP, EPR experiments were performed using DMPO as spin trap. Aliquots of the cell broth were transferred into Sarstedt tubes that were centrifuged (20 °C, 1800× g, 10 min), and the supernatants were discarded. Then the cell pellets were resuspended in PBS and centrifuged again. After removal of the supernatants, the cell pellets were resuspended in a mixture of PBS containing glucose (15 mM), giving a final cell number of 2 × 10^9 LtP/mL. Aliquots (150 µL) were incubated in 1.5 mL Eppendorf tubes with aeration holes. The cells were incubated with DMPO (40 mM) for 5 min at 26 °C, and after addition of 500 µM of the respective substance (Asc, AcEP1117, AcEP1118, AcEP1129, AcEP1130, Ac or AQ), the samples were incubated for additional 15 min at 26 °C under constant agitation (agitation speed: 0.3 s^−1). Control samples containing LtP, LtP and DMSO (1.27%, v/v), or PBS/glucose alone were incubated with 40 mM DMPO under the same conditions. Cell samples containing DMPO that were treated with Asc served as positive control. Samples treated with Ac or AQ were used as negative controls. Subsequently, 50 µL of the samples were aspirated into glass capillaries and transferred in the MD5 resonator of the EPR spectrometer. The samples were measured immediately using the following instrument settings: microwave frequency 9.684 GHz; microwave power 20 mW, modulation frequency 100 kHz; modulation amplitude 2 G; time constant 0.164 s; center field 3449 G; scan rate 71 G/min; sweep width 100 G; scan time 84 s; attenuation 8.93 × 10^5; and scans 3.

[1] = resazurin assay, endpoint at 48 h, 10^5 J774/mL

Row | Structure (SMILES) | IC50 (J774 macrophages; [1]) [µM] | DMPO spin adduct formation in LtP (EPR) (LtP) | IC50 (J774 macrophages; J774, 48 h) [µM]
1 | CC12OOC(c3ccccc31)c1ccccc12 [AcEP1129, 9-methyl-9,10-dihydro-9,10-epidioxidoanthracene] | 0.9 ± 0.28 | high intensity EPR spectra of spin adducts were observed | 
2 | CCc1ccc2c(c1)C1OOC2c2ccccc21 (stereo not shown) [AcEP1130, 2-ethyl-9,10-dihydro-9,10-epidioxidoanthracene] | 7.82 ± 0.47 | no spin adducts were observed | 
3 | O=C1c2ccccc2C(=O)c2ccccc21 [AQ, anthraquinone, reference compound] | 117 ± 24.3 | neither Ac nor AQ resulted in detectable DMPO spin adducts | 
4 | CC12OOC(C)(c3ccccc31)c1ccccc12 [AcEP1118, 9,10-dimethyl-9,10-dihydro-9,10-epidioxidoanthracene] | 4.34 ± 1.91 | a moderate intensity DMPO spin adduct was observed | 
5 | c1ccc2cc3ccccc3cc2c1 [Ac, anthracene] |  | neither Ac nor AQ resulted in detectable DMPO spin adducts | > 400
6 | N=C(N)c1ccc(OCCCCCOc2ccc(C(=N)N)cc2)cc1 [Pen, pentamidine, reference compound] | 14.4 ± 6.48 |  | 
7 | c1ccc2c(c1)C1OOC2c2ccccc21 [AcEP1117, 9,10-dihydro-9,10-epidioxidoanthracene] | 43.8 ± 36.1 | no spin adducts were observed | 
